{"source": "ChEMBL document CHEMBL4507276", "about": "(2021)", "key": {"[1]": {"molecular_target": "Beta-1 adrenergic receptor (Homo sapiens) (UniProt P08588)", "conditions": "Compound concentration 10.0 uM; call rule not given here"}, "[2]": {"molecular_target": "B2 bradykinin receptor (Homo sapiens) (UniProt P30411)", "sequence (P30411 whole entry)": "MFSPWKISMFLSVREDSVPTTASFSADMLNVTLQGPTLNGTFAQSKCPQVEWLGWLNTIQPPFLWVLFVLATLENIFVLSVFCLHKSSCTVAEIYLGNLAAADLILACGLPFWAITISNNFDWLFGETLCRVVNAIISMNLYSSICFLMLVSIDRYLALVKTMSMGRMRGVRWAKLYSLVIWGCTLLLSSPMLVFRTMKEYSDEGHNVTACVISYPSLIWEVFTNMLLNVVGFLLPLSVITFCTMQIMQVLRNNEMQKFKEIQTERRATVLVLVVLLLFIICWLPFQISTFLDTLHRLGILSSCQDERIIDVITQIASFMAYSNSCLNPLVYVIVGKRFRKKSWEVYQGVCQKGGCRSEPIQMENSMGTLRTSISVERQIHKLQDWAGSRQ", "assay": "B2/H Eurofins-Panlabs selectivity data (BI)", "conditions": "filed as antagonist, Compound concentration 10.0 uM"}, "[3]": {"molecular_target": "cGMP-inhibited 3',5'-cyclic phosphodiesterase 3B (Homo sapiens) (UniProt Q13370)", "sequence (Q13370 whole entry, looked up)": "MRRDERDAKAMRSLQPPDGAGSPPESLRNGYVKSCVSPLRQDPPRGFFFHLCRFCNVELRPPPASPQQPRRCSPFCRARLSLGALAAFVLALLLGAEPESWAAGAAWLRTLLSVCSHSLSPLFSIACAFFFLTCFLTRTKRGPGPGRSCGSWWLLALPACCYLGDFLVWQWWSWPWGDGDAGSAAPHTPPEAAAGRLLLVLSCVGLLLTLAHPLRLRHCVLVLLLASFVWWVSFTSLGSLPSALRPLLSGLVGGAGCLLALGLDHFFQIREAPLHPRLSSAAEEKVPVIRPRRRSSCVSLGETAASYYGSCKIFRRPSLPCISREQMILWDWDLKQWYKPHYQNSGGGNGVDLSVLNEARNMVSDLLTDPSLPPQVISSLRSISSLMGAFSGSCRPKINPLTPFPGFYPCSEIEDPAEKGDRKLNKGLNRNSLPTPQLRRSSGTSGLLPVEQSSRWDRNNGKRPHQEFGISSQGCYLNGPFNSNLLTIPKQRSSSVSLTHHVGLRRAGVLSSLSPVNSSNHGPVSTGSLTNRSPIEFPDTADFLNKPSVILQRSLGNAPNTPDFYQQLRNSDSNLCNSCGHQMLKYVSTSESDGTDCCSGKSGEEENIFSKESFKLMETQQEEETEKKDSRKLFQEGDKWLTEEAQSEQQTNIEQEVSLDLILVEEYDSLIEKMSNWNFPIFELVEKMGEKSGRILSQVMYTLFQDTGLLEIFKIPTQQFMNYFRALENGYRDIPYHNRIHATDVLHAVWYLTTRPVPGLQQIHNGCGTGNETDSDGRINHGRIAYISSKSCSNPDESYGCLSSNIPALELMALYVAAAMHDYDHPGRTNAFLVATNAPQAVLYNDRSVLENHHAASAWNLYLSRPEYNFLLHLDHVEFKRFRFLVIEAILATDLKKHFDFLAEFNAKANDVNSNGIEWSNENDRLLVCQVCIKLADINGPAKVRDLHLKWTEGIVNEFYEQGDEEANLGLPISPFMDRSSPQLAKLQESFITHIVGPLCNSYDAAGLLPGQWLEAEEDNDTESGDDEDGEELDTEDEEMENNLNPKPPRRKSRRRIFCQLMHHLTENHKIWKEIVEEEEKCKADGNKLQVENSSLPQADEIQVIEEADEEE", "assay": "PDE3B Cerep selectivity data (BI)", "conditions": "Compound concentration 20.0 uM"}, "[4]": {"molecular_target": "T1, Muscarinic acetylcholine receptor M2 (Homo sapiens) (UniProt P08172)", "T1 sequence (whole entry)": "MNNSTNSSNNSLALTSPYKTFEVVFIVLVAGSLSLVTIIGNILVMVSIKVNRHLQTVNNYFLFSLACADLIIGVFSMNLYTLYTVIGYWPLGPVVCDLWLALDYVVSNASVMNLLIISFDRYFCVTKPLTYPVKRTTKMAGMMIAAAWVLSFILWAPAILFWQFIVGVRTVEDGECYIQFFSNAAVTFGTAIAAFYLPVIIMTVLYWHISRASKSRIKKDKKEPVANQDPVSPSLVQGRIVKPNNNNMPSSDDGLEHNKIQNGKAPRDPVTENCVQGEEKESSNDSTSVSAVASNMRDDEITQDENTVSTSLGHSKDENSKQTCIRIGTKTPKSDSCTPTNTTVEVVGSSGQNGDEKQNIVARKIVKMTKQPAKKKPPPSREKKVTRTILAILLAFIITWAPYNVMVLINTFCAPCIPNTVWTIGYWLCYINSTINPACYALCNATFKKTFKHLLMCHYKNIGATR", "assay": "M2/HU Eurofins-Panlabs selectivity data (BI)", "conditions": "Compound concentration 10.0 uM"}, "[5]": {"molecular_target": "Tyrosine-protein kinase JAK2 (Homo sapiens) (UniProt O60674)", "assay": "JAK2 Invitrogen selectivity data (BI)", "conditions": "Compound concentration 3.0 uM"}, "[6]": {"molecular_target": "5-hydroxytryptamine receptor 2B (Homo sapiens) (UniProt P41595)", "assay": "5HT2B/HU Eurofins-Panlabs selectivity data (BI)", "conditions": "Compound concentration 10.0 uM"}, "[7]": {"molecular_target": "Serine/threonine-protein kinase Chk2 (Homo sapiens) (UniProt O96017)", "assay": "CHEK2 Invitrogen selectivity data (BI)", "conditions": "Compound concentration 3.0 uM"}, "[8]": {"molecular_target": "BDNF/NT-3 growth factors receptor (Homo sapiens) (UniProt Q16620)", "assay": "NTRK2 Invitrogen selectivity data (BI)", "conditions": "Compound concentration 3.0 uM"}, "[9]": {"molecular_target": "Ribosomal protein S6 kinase alpha-4 (Homo sapiens) (UniProt O75676)", "sequence (O75676 whole entry, looked up)": "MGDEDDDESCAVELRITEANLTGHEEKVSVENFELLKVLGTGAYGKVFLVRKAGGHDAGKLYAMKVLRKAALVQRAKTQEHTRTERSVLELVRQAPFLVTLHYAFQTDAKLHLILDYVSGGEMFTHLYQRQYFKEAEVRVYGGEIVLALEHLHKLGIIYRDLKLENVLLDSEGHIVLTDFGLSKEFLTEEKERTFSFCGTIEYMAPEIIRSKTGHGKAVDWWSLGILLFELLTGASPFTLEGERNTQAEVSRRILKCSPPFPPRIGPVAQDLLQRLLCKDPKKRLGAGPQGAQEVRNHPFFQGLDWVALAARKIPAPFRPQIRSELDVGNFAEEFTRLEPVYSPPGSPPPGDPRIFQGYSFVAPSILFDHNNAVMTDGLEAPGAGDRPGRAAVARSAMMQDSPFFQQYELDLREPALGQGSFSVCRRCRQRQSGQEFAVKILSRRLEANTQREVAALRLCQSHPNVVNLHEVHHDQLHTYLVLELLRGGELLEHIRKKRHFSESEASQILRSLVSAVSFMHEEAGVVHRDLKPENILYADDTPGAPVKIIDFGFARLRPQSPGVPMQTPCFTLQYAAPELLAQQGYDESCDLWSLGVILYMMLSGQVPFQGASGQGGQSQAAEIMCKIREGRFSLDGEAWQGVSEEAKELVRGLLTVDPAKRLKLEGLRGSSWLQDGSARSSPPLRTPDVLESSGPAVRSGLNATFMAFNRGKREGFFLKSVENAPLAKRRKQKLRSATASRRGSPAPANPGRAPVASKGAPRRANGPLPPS", "assay": "RPS6KA4 Invitrogen selectivity data (BI)", "conditions": "Compound concentration 3.0 uM"}, "[10]": {"molecular_target": "Melanocortin receptor 3 (Homo sapiens) (UniProt P41968)", "sequence (P41968 whole entry)": "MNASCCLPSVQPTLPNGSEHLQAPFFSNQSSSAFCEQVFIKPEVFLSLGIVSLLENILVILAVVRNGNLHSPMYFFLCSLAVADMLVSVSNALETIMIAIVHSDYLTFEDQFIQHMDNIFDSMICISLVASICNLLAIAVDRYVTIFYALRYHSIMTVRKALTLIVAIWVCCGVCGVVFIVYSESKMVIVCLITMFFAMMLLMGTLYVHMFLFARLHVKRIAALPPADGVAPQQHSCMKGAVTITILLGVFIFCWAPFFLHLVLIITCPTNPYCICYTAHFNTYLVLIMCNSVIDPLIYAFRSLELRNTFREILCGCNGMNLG", "assay": "MC3H_AGON Cerep selectivity data (BI)", "conditions": "filed as agonist, Compound concentration 20.0 uM"}, "[11]": {"molecular_target": "Glutamate NMDA receptor (Rattus norvegicus) (UniProt P35439+Q00959+Q00960+Q00961+Q62645+Q8VHN2+Q9R1M7)", "assay": "NMDAAGSI/RA Eurofins-Panlabs selectivity data (BI)", "format": "protein-complex assay", "conditions": "filed as agonist, Compound concentration 10.0 uM"}, "[12]": {"molecular_target": "Glutamate receptor ionotropic, NMDA 1 (Rattus norvegicus) (UniProt P35439)", "assay": "NMDAGLSI/RA Eurofins-Panlabs selectivity data (BI)", "conditions": "Compound concentration 10.0 uM"}, "[13]": {"molecular_target": "Dual specificity tyrosine-phosphorylation-regulated kinase 1A (Homo sapiens) (UniProt Q13627)", "assay": "DYRK1A Invitrogen selectivity data (BI)", "conditions": "Compound concentration 3.0 uM"}, "[14]": {"molecular_target": "Tyrosine-protein kinase ABL1 (Homo sapiens) (UniProt P00519)", "sequence (P00519 whole entry)": "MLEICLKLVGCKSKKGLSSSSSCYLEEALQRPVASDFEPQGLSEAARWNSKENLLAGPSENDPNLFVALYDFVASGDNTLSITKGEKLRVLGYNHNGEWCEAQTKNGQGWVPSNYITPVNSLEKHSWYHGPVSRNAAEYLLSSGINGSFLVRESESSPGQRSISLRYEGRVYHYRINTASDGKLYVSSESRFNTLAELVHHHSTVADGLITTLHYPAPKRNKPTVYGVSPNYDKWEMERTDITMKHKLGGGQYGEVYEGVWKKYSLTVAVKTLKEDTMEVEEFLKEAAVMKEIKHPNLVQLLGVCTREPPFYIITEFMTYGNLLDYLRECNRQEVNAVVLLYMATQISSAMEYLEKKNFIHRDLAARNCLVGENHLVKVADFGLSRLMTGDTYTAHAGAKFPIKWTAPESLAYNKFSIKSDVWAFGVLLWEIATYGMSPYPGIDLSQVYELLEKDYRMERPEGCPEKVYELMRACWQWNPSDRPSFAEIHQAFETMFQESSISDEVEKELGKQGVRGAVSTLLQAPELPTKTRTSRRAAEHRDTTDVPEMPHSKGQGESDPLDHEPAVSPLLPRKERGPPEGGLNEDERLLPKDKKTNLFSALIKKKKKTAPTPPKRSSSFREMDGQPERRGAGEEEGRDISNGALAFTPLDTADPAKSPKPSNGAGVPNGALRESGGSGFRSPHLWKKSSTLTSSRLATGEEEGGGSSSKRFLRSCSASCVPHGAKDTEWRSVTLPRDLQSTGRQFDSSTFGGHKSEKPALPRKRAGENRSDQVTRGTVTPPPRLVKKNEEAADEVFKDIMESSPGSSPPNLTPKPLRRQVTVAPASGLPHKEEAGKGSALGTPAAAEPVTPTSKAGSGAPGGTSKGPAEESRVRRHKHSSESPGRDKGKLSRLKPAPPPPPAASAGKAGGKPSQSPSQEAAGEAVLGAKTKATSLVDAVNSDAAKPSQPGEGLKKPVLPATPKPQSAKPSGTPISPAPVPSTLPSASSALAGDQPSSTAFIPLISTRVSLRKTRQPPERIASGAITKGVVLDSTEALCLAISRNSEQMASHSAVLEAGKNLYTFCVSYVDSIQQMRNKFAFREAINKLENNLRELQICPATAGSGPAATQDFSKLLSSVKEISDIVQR", "assay": "ABL_CE Cerep selectivity data (BI)", "conditions": "Compound concentration 20.0 uM"}, "[15]": {"molecular_target": "Sodium-dependent serotonin transporter (Homo sapiens) (UniProt P31645)", "assay": "5HTTRANS/HU Eurofins-Panlabs selectivity data (BI)", "conditions": "Compound concentration 10.0 uM"}, "[16]": {"system": "Platelet-derived growth factor receptor alpha (Homo sapiens), P16234 [T674I]", "assay": "PDGFRA T674I Invitrogen selectivity data (BI)", "conditions": "Compound concentration 3.0 uM"}, "[17]": {"molecular_target": "Receptor-type tyrosine-protein kinase FLT3 (Homo sapiens) (UniProt P36888)", "assay": "FLT3 Invitrogen selectivity data (BI)", "conditions": "Compound concentration 3.0 uM"}, "[18]": {"molecular_target": "Bone morphogenetic protein receptor type-1A (Homo sapiens) (UniProt P36894)", "assay": "BMPR1A(ALK3) Invitrogen selectivity data (BI)", "conditions": "Compound concentration 3.0 uM"}, "[19]": {"molecular_target": "L-type Ca2+ channel (verapamil site), Cav1.2 alpha-1C (Rattus norvegicus, UniProt P22002)", "assay": "CA+/VERSI/R Cerep selectivity data (BI)", "design": "mode of action inhibitor", "conditions": "rat brain, probe [3H](-)D888, compound concentration 20 uM, read-out: % Ctrl"}, "[20]": {"molecular_target": "T2, Serine/threonine-protein kinase BRSK1 (Homo sapiens) (UniProt Q8TDC3)", "T2 sequence (whole entry)": "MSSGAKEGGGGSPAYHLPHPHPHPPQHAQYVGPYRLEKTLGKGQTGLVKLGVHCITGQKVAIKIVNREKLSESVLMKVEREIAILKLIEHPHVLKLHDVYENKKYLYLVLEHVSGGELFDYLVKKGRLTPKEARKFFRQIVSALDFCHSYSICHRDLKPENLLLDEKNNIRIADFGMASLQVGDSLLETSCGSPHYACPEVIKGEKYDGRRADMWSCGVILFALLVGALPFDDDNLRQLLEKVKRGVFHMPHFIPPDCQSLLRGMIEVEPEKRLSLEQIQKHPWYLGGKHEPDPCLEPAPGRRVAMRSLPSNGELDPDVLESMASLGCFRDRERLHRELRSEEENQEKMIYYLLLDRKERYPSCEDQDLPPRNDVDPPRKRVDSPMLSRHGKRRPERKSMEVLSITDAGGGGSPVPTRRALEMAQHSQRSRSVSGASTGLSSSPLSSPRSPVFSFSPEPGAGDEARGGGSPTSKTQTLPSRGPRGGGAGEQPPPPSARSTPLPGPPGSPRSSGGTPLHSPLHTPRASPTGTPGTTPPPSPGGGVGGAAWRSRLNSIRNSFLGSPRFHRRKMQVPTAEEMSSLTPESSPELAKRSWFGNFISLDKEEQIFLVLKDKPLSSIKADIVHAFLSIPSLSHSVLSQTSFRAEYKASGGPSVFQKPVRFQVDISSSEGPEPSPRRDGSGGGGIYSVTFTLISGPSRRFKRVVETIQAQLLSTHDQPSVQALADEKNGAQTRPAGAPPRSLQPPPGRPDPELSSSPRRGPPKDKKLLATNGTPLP", "assay": "BRSK1 Invitrogen selectivity data (BI)", "conditions": "Compound concentration 3.0 uM"}, "[21]": {"molecular_target": "Melatonin receptor type 1A (Homo sapiens) (UniProt P48039)", "assay": "MT1/H Eurofins-Panlabs selectivity data (BI)", "conditions": "Compound concentration 10.0 uM"}, "[22]": {"molecular_target": "Substance-P receptor (Homo sapiens) (UniProt P25103)", "sequence (P25103 whole entry)": "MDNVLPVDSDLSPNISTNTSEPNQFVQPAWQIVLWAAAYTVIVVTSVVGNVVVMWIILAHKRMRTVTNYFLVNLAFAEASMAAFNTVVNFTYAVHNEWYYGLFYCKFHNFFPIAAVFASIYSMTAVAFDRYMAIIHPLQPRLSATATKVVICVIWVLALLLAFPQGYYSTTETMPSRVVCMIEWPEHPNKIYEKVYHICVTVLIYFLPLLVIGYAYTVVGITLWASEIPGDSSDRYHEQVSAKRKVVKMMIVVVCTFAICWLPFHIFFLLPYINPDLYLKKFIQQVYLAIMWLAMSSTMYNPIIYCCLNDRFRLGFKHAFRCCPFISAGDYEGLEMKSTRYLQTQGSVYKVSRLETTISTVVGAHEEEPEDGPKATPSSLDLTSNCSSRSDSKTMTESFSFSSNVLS", "assay": "NK1/HU Eurofins-Panlabs selectivity data (BI)", "conditions": "Compound concentration 10.0 uM"}, "[23]": {"molecular_target": "Neuropeptide Y receptor type 1 (Homo sapiens) (UniProt P25929)", "sequence (P25929 whole entry)": "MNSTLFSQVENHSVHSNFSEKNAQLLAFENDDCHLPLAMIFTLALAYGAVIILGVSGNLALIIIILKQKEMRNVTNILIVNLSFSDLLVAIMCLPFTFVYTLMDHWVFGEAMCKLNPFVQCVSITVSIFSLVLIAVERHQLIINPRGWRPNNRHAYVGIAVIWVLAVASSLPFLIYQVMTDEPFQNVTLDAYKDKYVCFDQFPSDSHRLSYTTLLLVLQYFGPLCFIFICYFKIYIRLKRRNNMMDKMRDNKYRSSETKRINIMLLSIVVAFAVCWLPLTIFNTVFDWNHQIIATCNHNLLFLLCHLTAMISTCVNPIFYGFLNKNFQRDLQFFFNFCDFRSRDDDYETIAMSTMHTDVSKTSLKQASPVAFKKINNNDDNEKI", "assay": "Y1/HU Eurofins-Panlabs selectivity data (BI)", "conditions": "Compound concentration 10.0 uM"}, "[24]": {"molecular_target": "Mitogen-activated protein kinase kinase kinase 11 (Homo sapiens) (UniProt Q16584)", "assay": "MAP3K11 Invitrogen selectivity data (BI)", "conditions": "Compound concentration 3.0 uM"}, "[25]": {"molecular_target": "Alpha-1B adrenergic receptor (Rattus norvegicus) (UniProt P15823)", "sequence (P15823 whole entry, looked up)": "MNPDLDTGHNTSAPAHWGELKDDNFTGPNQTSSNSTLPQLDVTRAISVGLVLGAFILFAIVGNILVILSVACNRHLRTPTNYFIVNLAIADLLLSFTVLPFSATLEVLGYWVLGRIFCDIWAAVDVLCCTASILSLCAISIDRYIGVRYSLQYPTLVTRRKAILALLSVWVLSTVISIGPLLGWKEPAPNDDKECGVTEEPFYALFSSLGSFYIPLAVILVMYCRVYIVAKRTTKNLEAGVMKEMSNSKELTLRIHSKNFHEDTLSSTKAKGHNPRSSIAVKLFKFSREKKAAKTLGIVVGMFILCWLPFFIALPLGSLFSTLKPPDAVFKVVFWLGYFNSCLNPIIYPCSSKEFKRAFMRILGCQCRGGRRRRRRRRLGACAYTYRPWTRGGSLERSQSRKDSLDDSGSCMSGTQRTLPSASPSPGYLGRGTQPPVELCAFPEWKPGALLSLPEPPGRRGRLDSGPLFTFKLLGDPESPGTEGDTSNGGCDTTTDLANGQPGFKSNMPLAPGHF", "assay": "ALPHA1B/R Eurofins-Panlabs selectivity data (BI)", "conditions": "Compound concentration 10.0 uM"}, "[26]": {"molecular_target": "Voltage-dependent N-type calcium channel subunit alpha-1B (Rattus norvegicus) (UniProt Q02294)", "assay": "CA+/N/RA Eurofins-Panlabs selectivity data (BI)", "conditions": "Compound concentration 10.0 uM"}}}
{"smiles": "CN(C)C(=O)Cn1cc(-c2nc(C3(c4ccc(-c5cnc(N)nc5)cc4)CC3)no2)cn1", "note": "[BI 0153]", "values": [{"measurement": "inhibition", "setting": "[1]", "value": 7.58, "unit": "%"}]}
{"smiles": "CN(C)C(=O)Cn1cc(-c2nc([C@@](C)(c3ccc(-c4cnc(N)nc4)cc3)C3CC3)no2)cn1", "note": "[BI 665915]", "values": [{"measurement": "residual activity", "setting": "[2]", "value": 123, "unit": "%"}, {"measurement": "residual activity", "setting": "[3]", "value": 95, "unit": "%"}, {"measurement": "residual activity", "setting": "[4]", "value": 98, "unit": "%"}, {"measurement": "residual activity", "setting": "[5]", "value": 91, "unit": "%"}, {"measurement": "residual activity", "setting": "[6]", "value": 97, "unit": "%"}, {"measurement": "residual activity", "setting": "[7]", "value": 99, "unit": "%"}, {"measurement": "residual activity", "setting": "[8]", "value": 94.5, "unit": "%"}, {"measurement": "residual activity", "setting": "[9]", "value": 103, "unit": "%"}, {"measurement": "residual activity", "setting": "[10]", "value": 94, "unit": "%"}, {"measurement": "residual activity", "setting": "[11]", "value": 102, "unit": "%"}, {"measurement": "residual activity", "setting": "[12]", "value": 90, "unit": "%"}, {"measurement": "residual activity", "setting": "[13]", "value": 100, "unit": "%"}, {"measurement": "residual activity", "setting": "[14]", "value": 33, "unit": "%"}, {"measurement": "residual activity", "setting": "[15]", "value": 106, "unit": "%"}, {"measurement": "residual activity", "setting": "[16]", "value": 87, "unit": "%"}, {"measurement": "residual activity", "setting": "[17]", "value": 89, "unit": "%"}, {"measurement": "residual activity", "setting": "[18]", "value": 87, "unit": "%"}, {"measurement": "activity at 20 µM", "setting": "[19]", "value": "90% (not active)"}, {"measurement": "residual activity", "setting": "[20]", "value": 90.5, "unit": "%"}, {"measurement": "residual activity", "setting": "[21]", "value": 96, "unit": "%"}, {"measurement": "residual activity", "setting": "[22]", "value": 104, "unit": "%"}, {"measurement": "residual activity", "setting": "[23]", "value": 109, "unit": "%"}, {"measurement": "residual activity", "setting": "[24]", "value": 96, "unit": "%"}, {"measurement": "residual activity", "setting": "[25]", "value": 96, "unit": "%"}, {"measurement": "residual activity", "setting": "[26]", "value": 95, "unit": "%"}]}
